According to patent publication US20240351967A1, “METHODS OF PREPARATION OF ZINGERONE, COMPOSITIONS COMPRISING ZINGERONE, AND USES THEREFOR” (Evithe Limited, priority 2021, published 2024):
In brackets after ≈: the same amount, converted by molar mass. Several values for one entry are separate records, joined by “and”; a condition that tells them apart may be missing. Equal values may be shown once. Read-outs that look alike come from different tables or passages of the source.

Experiments:
Staphylococcus aureus = assay: Chequerboard analysis / MIC against Staphylococcus aureus (MRSA cells); assay type: cell-based
Description: Chequerboard analysis was used to determine whether compounds could be combined to decrease the MIC for Staphylococcus aureus, as compared to each individual compound. In the present experiments, combinations of zingerone plus gentamicin, zingerone plus vancomycin, and zingerone plus cefotaxime were tested. For this testing, 96 well plates were inoculated Staphylococcus aureus, and then incubated with the test compounds for 24 hours at 37° C. For zingerone, additions were made at […], 12.5, and 25 mg/ml. For gentamicin, additions were made at 0, 4, 8, 16, 32, 64, 128, and 256 μg/ml. For vancomycin, additions were made at 0, 4, 8, 16, 32, 64, 128, and 256 μg/ml. For cefotaxime, additions were made at 0, 8, 16, 32, 64, 128, 256, and 512 μg/ml. MRSA cells (methicillin-resistant Staphylococcus aureus) were introduced in Mueller Hinton media with 2% NaCl. 10^8 cells per ml were utilised. The FICI index was used to quantify the interaction of the compounds interact employing the following equation: FICI=(MICA^combi/MICA^alone)+ (MICB^combi/MICB^alone). A FICI of ≤0.5 was designated as synergy, and a FICI of >4.0 was defined as antagonism. A FICI of 0.5 to 1.0 was deemed as a significant improvement although not synergistic.

Pseudomonas aeruginosa = details: cited from earlier work
liver inflammation = details: peritonitis mouse model; cited from earlier work
[1] = EFSA 2016; 14 (8): 4557; cited from earlier work
[2] = cited from earlier work
[3] = individual compound, 24 hours at 37° C., MRSA in Mueller Hinton media with 2% NaCl

## CO/N=C(\C(=O)N[C@@H]1C(=O)N2C(C(=O)O)=C(COC(C)=O)CS[C@H]12)c1csc(N)n1 [Cefotaxime, reference compound]
Staphylococcus aureus; Staphylococcus aureus, individual compound, 24 hours at 37° C., MRSA in Mueller Hinton media with 2% NaCl, read-out: MIC
  MIC: > 512 µg/mL

## Gentamicin [reference compound]
Staphylococcus aureus; gentamicin in combination with zingerone
  MIC: 4 µg/mL
Staphylococcus aureus; [3]
  MIC: 16 µg/mL

## CN[C@H](CC(C)C)C(=O)N[C@H]1C(=O)N[C@@H](CC(N)=O)C(=O)N[C@H]2C(=O)N[C@H]3C(=O)N[C@H](C(=O)N[C@H](C(=O)O)c4cc(O)cc(O)c4-c4cc3ccc4O)[C@H](O)c3ccc(c(Cl)c3)Oc3cc2cc(c3O[C@@H]2O[C@H](CO)[C@@H](O)[C@H](O)[C@H]2O[C@H]2C[C@](C)(N)[C@H](O)[C@H](C)O2)Oc2ccc(cc2Cl)[C@H]1O [Vancomycin, reference compound]
Staphylococcus aureus; Staphylococcus aureus, MRSA, 24 h
  MIC: 8 µg/mL

## COc1cc(CCC(C)=O)ccc1O [Zingerone]
Pseudomonas aeruginosa
  effect on susceptibility of cells to antibiotics: enhance the susceptibility
Liver inflammation
  effect on liver inflammation: anti-inflammatory effect
[1]
  No Observed Adverse Effects (NOAEL) dose: 128 mg/kg/day
Staphylococcus aureus; [3]
  MIC: 25 mg/g
Staphylococcus aureus; zingerone in combination with cefotaxime
  MIC: 25 mg/g
Staphylococcus aureus; zingerone in combination with gentamicin
  MIC: 6.25 mg/g
Staphylococcus aureus; zingerone in combination with vancomycin
  MIC: 12.5 mg/g
[2]; FoodB compounds database
  Log P: 2.02 and 1.92
  water solubility: 570 µg/mL (≈ 2930 µM)
[2]; reported
  solubility (in words): sparingly soluble in water
